Values joined by “and” are separate entries in the source; they are usually repeats but may differ in a detail not shown here. Equal values may be shown once. “Also recorded” adds a separate entry of the source. Read-outs that look alike come from different tables or passages of the source.

The values that follow come from publication PMC10287695, “Non-covalent inhibitors of thioredoxin glutathione reductase with schistosomicidal activity in vivo” (Nature Communications, 2023).

A short description of data set [1]: Reactivity with GSH or N-Boc protected methyl ester of selenocysteine (LCMS). The data set is classed as physicochemical. To be noted: up to 120 h. The procedure:
Dimethyl bis(N-tert-butoxycarbonyl)-L-selenocystine was synthesized as reported previously. (N-tert-butoxycarbonyl)-L-selenocysteine methyl ester was prepared in situ[86] in methanol or phosphate buffer. Compound 2 was added to the solution of (N-tert-butoxycarbonyl)-L-selenocysteine methyl ester in either methanol or phosphate buffer and incubated for 40 min, 24 h, and 120 h under N2 gas balloon. Additional amounts of NaBH4 were added at 12 h and 96 h to maintain the reducing conditions. Aliquots taken from methanol solution at each of the time points were concentrated in vacuo, mixed with water, and extracted with ethyl acetate. The organic layer was separated, concentrated in vacuo, re-dissolved in methanol and analyzed by LCMS. Aliquots taken from the phosphate buffer solution were extracted with ethyl acetate. The resulting organic layer was separated and concentrated in vacuo. The residue was re-dissolved in methanol and analyzed by LCMS. […] No additional spots were detected by TLC as well.
Covalent TGR inhibitor TRi-1 was used as a positive control for the reaction with (N-tert-butoxycarbonyl)-L-selenocysteine methyl ester. The reactivity of TRi-1 was tested similarly as described above for compound 2.

The nature of data set [2]: Pharmacokinetics, intraperitoneal administration. It is filed as in vivo, Swiss Webster mice. To be noted: for Plasma concentration, single animal / concentration at 0 h / concentration at 0.5 h / concentration at 1 h / concentration at 2 h: IP; for Plasma concentration, single animal / concentration at 0 h / concentration at 0.5 h / concentration at 1 h / concentration at 2 h / concentration at 30 min / concentration at 60 min / concentration at 120 min / plasma concentration: 100 mg/kg; for Plasma concentration, single animal: listed as 2 (8VP101). On the procedure: All the mice were weighed and dosed intraperitoneally accordingly at 100 mg/kg body weight with freshly prepared 1 or 2.
Blood was collected by submandibular puncture into 1 mL Eppendorf tubes, the plasma was separated and stored in −80 °C until used. A 25 µl of mouse plasma was transferred into 1.5 ml centrifuge tube which was spiked with 2.5 µl of internal standard (IS) working standard solution […] to get final IS contraction of 250 ng/ml and the solution was vortexed. An aliquot of 75 µl of methanol/0.15 formic acid was added and gently vortexed for 2 min. The samples then centrifuged for 20 min at 4 °C and 15000 × g. A clear supernatant (50 µl) with added 50 µl mobile phase (reconstitution solution) from each extraction was then transferred into a 250 µl autosampler vial. A 3 µl aliquot of each sample was injected for LC-MSMS analysis.
The total run time of 2 min with an injection volume of 3 μl at column temperature 40 °C were efficient to achieve accepted results.
A Shimadzu LC20AD, Ultra Performance Liquid Chromatography (UPLC) system (Shimadzu Corporation, Kyoto, Japan) equipped with Shimadzu 8040 triple quadrupole (QqQ) mass analyzer (Shimadzu Corporation, Kyoto, Japan) with an electrospray ionization source (ESI) operated in the positive charge mode for the quantification of 1 and 2.

The subject of another data set is adult worms in mice. Also noted: method as in PMID 15013742. The settings on record: cited from earlier work.
A further data set deals with adult worms. Also on record: method as in PMID 15013742. The settings on record: overnight exposure followed by 8 days culture; cited from earlier work.

In general, Cmax refers to the maximum level reached in the sampled fluid or tissue. The half-life is the time in which the quantity being followed falls by half. For the compound `CCc1ccccc1-c1nc(CN[C@@H]2C[C@@H]3C[C@H]([C@H]2C)C3(C)C)c(C)o1` [Compound 2], the “reaction with thiol or selenol groups in GSH or protected selenocysteine” value in data set [1] is recorded as “No additional peaks were detected; also recorded: no reaction”. Further, the “Plasma concentration, single animal” value in data set [2] (0 Hour) is 0.000 uM (2×) and 0.000 ug/mL (2×); in data set [2] (0.5 Hour), 4.991 uM and 5.302 uM and 1.758 ug/mL and 1.868 ug/mL; in data set [2] (1 Hour), 4.630 uM and 3.814 uM and 1.631 ug/mL and 1.343 ug/mL; in data set [2] (2 Hour), 3.386 uM and 3.401 uM and 1.193 ug/mL and 1.198 ug/mL. In addition, the concentration at 0 h in data set [2] (male, Swiss Webster, mouse, plasma, ip, 0 Hour, read-out: Plasma concentration, Average) is 0 nM and 0 ng/mL; in data set [2] (male, Swiss Webster, mouse, plasma, ip, 0 Hour, read-out: Plasma concentration, single animal) it was 0 nM and 0 ng/mL. The concentration at 0.5 h in data set [2] (male, Swiss Webster, mouse, plasma, ip, 0.5 Hour, read-out: Plasma concentration, Average) is 4.8 µM and 1690 ng/mL; in data set [2] (male, Swiss Webster, mouse, plasma, ip, 0.5 Hour, read-out: Plasma concentration, single animal), 4.12 µM and 1450 ng/mL. Also, the concentration at 1 h in data set [2] (male, Swiss Webster, mouse, plasma, ip, 1 Hour, read-out: Plasma concentration, Average) is 3.91 µM and 1520 ng/mL; in data set [2] (male, Swiss Webster, mouse, plasma, ip, 1 Hour, read-out: Plasma concentration, single animal) it was 3.29 µM and 1600 ng/mL. In addition, the concentration at 2 h is 3.06 µM and 1080 ng/mL in data set [2] (male, Swiss Webster, mouse, plasma, ip, 2 Hour, read-out: Plasma concentration, Average); 2.39 µM and 846 ng/mL in data set [2] (male, Swiss Webster, mouse, plasma, ip, 2 Hour, read-out: Plasma concentration, single animal). Moreover, the concentration at 30 min in data set [2] (male, Swiss Webster, mouse, plasma, ip, mice, 100 mg/kg i.p., 30 min) worked out at 4.8 ± 0.612 µM; in data set [2] (male, Swiss Webster, mouse, plasma, ip, mice, intraperitoneal, 30 min), 1690 ± 216 ng/mL. For the same compound, the concentration at 60 min was 3.91 ± 0.674 µM in data set [2] (male, Swiss Webster, mouse, plasma, ip, mice, 100 mg/kg i.p., 60 min) and 1520 ± 158 ng/mL in data set [2] (male, Swiss Webster, mouse, plasma, ip, mice, intraperitoneal, 60 min). Moreover, the concentration at 120 min was determined as 3.06 ± 0.578 µM in data set [2] (male, Swiss Webster, mouse, plasma, ip, mice, 100 mg/kg i.p., 120 min) and 1080 ± 202 ng/mL in data set [2] (male, Swiss Webster, mouse, plasma, ip, mice, intraperitoneal, 120 min). For the same compound, the Cmax in data set [2] (male, Swiss Webster, mouse, plasma, ip, mice, 100 mg/kg i.p., at 30 min) is 4.8 µM. In data set [2] (male, Swiss Webster, mouse, plasma, ip, mice, 100 mg/kg i.p., estimated from the time points available), the half-life was around 1.5 h. In addition, the overt toxicity result in data set [2] (mice, 100 mg/kg i.p.) was “no overt toxicity”. The plasma concentration is 4.8 µM in data set [2] (mice, 100 mg/kg i.p., 30 min); 3.9 µM in data set [2] (mice, 100 mg/kg i.p., 60 min); 3.0 µM in data set [2] (mice, 100 mg/kg i.p., 120 min).
In the case of `O=C(C1CCCCC1)N1CC(=O)N2CCc3ccccc3C2C1` (stereo not shown) [PZQ, praziquantel], the “ED50 against adult worms in mice” value with adult worms in mice is 80 mg/kg. Further, in the data set on adult worms, the “LD50 against adult worms, female” value is on record as 5.1 µM and the “LD50 against adult worms, male” value is recorded as 1.5 µM.
